Reference: patent publication US20240300886A1, “ARYLCYCLOHEXYLAMINE DERIVATIVES AND THEIR USE IN THE TREATMENT OF PSYCHIATRIC DISORDERS” (GILGAMESH PHARMACEUTICALS, INC., priority 2021, published 2024)
Like-named read-outs stand apart in the source and are kept apart here.

Legend:
[1] = Oral bioavailability in mice, Method B (plasma and brain PK); format: in vivo, C57BL/6 mice; conditions: Method B; for half-life / Cmax / AUC(0-inf): male, C57BL/6; for AUC(0-inf) / AUC0-inf (iv) / AUC0-inf (po): values represent AUC0-last; for F: 1 mg/kg
Experimental: Animals. Male C57BL/6 mice were used in these studies. Animals were randomly assigned to treatment groups and were fasted for 4 h before dosing.
Drugs. Test compounds were dissolved in a vehicle consisting of normal saline (for compounds used as the HCl salt) or normal saline slightly acidified with aq. HCl (for freebase compounds). They were then administered intravenously (iv) or orally (po) at a dose of 1 or 10 mg/kg (calculated based on freebase), as indicated, and at a volume of 5 mL/kg body weight. Compounds were tested as the racemates or pure enantiomers, as indicated.
(§1) Sample Collection and Bioanalysis. Blood samples (approximately 60 μL) were collected under light isoflurane anesthesia (Surgivet®) from the retro orbital plexus at 0.08, 0.25, 0.5, 1, 2, 4, 8, and 24 h (4 animals per time point). Immediately after blood collection, plasma was harvested by centrifugation at 4,000 rpm for 10 min at 4° C. and samples were stored at −70±10° C. until bioanalysis. Following blood collection, animals were immediately sacrificed, the abdominal vena-cava was cut open, and the whole body was perfused from the heart using 10 mL of normal saline, and brain samples were collected from all animals. After isolation, brain samples were rinsed three times in ice-cold normal saline (for 5-10 seconds/rinse using ˜5-10 mL, normal saline in disposable petri dish for each rinse) and dried on blotting paper. Brain samples were homogenized using ice-cold phosphate-buffered saline (pH 7.4). Total homogenate volume was three times the tissue weight. All homogenates were stored at −70±10° C. until bioanalysis. For bioanalysis, 25 μL aliquots of plasma/brain study samples or spiked plasma/brain calibration standards were added to individual pre-labeled micro-centrifuge tubes followed by 100 μL of an internal standard solution (glipizide, 500 ng/mL in acetonitrile) except for blanks, where 100 μL of acetonitrile was added. Samples were vortexed for 5 minutes and then centrifuged for 10 minutes at 4,000 rpm at 4° C. Following centrifugation, 100 μL of each clear supernatant was transferred to a 96 well plate and analyzed with a fit-for-purpose LC-MS/MS method, with authentic samples of each analyte used for calibration and identification.
(§2) Data Analysis. Pharmacokinetic parameters were estimated using the non-compartmental analysis tool of Phoenix® WinNonlin software (Ver 8.0).

[2] = Comparative metabolism/PK of 2R and deuterated 7R in rats after oral administration; format: in vivo, Sprague Dawley rats; conditions: for concentration at 0.083 h / concentration at 0.25 h / concentration at 0.5 h / concentration at 1 h / concentration at 2 h / concentration at 4 h: oral
Experimental: Animals. Male Sprague Dawley rats were used in these studies. Animals were randomly assigned to treatment groups and were fasted for 4 h before dosing.
Drugs. Test compounds 2R and 7R were dissolved in a vehicle consisting of normal saline. They were then administered orally (po) at a dose of 10 mg/kg (calculated based on freebase), and at a volume of 5 mL/kg body weight.
as §1, with “mL” for “mL,”, “7.4)” for “7.4).”, “identification. Concentrations of parent compound (2R or 7R) and metabolite 1R were determined in all samples.” for “identification.”
as §2

[3] = mouse brain, 1 mg/kg iv, read-out: t1/2 (iv)
[4] = mouse plasma, 1 mg/kg iv, read-out: t1/2 (iv)
[5] = mouse plasma, 1 mg/kg iv, read-out: AUC0-inf (iv) (converted)
[6] = mouse plasma, 1 mg/kg po, read-out: t1/2 (po)
[7] = mouse plasma, 1 mg/kg po, read-out: AUC0-inf (po) (converted)
[8] = mouse brain, calculated based on brain exposure (AUC0-last)
[9] = mouse plasma, based on AUC0-last
[10] = male, Sprague Dawley, rat, brain, 10 mg/kg, rat brain, 0.083 h after 10 mg/kg po of 2R or 7R, read-out: Mean brain concentration
[11] = male, Sprague Dawley, rat, brain, 10 mg/kg, rat brain, 0.25 h after 10 mg/kg po of 2R or 7R, read-out: Mean brain concentration
[12] = male, Sprague Dawley, rat, brain, 10 mg/kg, rat brain, 0.5 h after 10 mg/kg po of 2R or 7R, read-out: Mean brain concentration
[13] = male, Sprague Dawley, rat, brain, 10 mg/kg, rat brain, 1 h after 10 mg/kg po of 2R or 7R, read-out: Mean brain concentration
[14] = male, Sprague Dawley, rat, brain, 10 mg/kg, rat brain, 2 h after 10 mg/kg po of 2R or 7R, read-out: Mean brain concentration
[15] = male, Sprague Dawley, rat, brain, 10 mg/kg, rat brain, 4 h after 10 mg/kg po of 2R or 7R, read-out: Mean brain concentration
[16] = rat brain after 10 mg/kg po of 2R or 7R, parent or metabolite 1R as labelled, listed as 1R as metabolite of 2R
[17] = rat brain after 10 mg/kg po of 2R or 7R, parent or metabolite 1R as labelled, listed as 1R as metabolite of 7R
[18] = rat plasma after 10 mg/kg po of 2R or 7R, parent or metabolite 1R as labelled, listed as 1R as metabolite of 7R
[19] = mouse brain, 1 mg/kg po, read-out: t1/2 (po)

N[C@]1(c2ccc(F)cc2)CCCCC1=O [Compound 1S, (S)-2-amino-2-(4-fluorophenyl)cyclohexan-1-one] gave a half-life [1, 3] of 36.6 min, a Cmax ([1]; mouse brain, 1 mg/kg po) of 82.2 ng/g and a half-life [1, 4] of 86.4 min. For the same compound, the AUC(0-inf) [1, 5] was 501 ng·h/mL, the Cmax ([1]; mouse plasma, 1 mg/kg po) was 394 ng/mL and the half-life [1, 6] was 82.2 min. For the same compound, the AUC(0-inf) [1, 7] was 470 ng·h/mL, the “AUC0-inf (iv)” value ([1]; mouse brain, 1 mg/kg iv) was 14,776 ng*min/g and the “AUC0-inf (po)” value ([1]; mouse brain, 1 mg/kg po) was 6,557 ng*min/g. For the same compound, the F [1, 8] was 44% and the F [1, 9] was 94%.
N[C@@]1(c2ccc(F)cc2)CCCCC1=O [Compound 1R, (R)-2-amino-2-(4-fluorophenyl)cyclohexan-1-one] showed a concentration at 0.083 h [2, 10] of 56 ng/g, a concentration at 0.25 h [2, 11] of 1470 ng/g and a concentration at 0.5 h [2, 12] of 3200 ng/g. It also gave a concentration at 1 h [2, 13] of 3500 ng/g, a concentration at 2 h [2, 14] of 2670 ng/g and a concentration at 4 h [2, 15] of 1610 ng/g. For the same compound, the half-life ([2]; male, Sprague Dawley, rat, brain, po, 10 mg/kg, rat brain after 10 mg/kg po of 2R or 7R, parent or metabolite 1R as labelled, read-out: t1/2 (brain)) was 121 min, the concentration at 0.083 h ([2]; male, Sprague Dawley, rat, plasma, 10 mg/kg, rat plasma, 0.083 h after 10 mg/kg po of 2R or 7R, read-out: Mean plasma concentration) was 31 ng/mL and the concentration at 0.25 h ([2]; male, Sprague Dawley, rat, plasma, 10 mg/kg, rat plasma, 0.25 h after 10 mg/kg po of 2R or 7R, read-out: Mean plasma concentration) was 889 ng/mL. For the same compound, the concentration at 0.5 h ([2]; male, Sprague Dawley, rat, plasma, 10 mg/kg, rat plasma, 0.5 h after 10 mg/kg po of 2R or 7R, read-out: Mean plasma concentration) was 1700 ng/mL, the concentration at 1 h ([2]; male, Sprague Dawley, rat, plasma, 10 mg/kg, rat plasma, 1 h after 10 mg/kg po of 2R or 7R, read-out: Mean plasma concentration) was 2110 ng/mL and the concentration at 2 h ([2]; male, Sprague Dawley, rat, plasma, 10 mg/kg, rat plasma, 2 h after 10 mg/kg po of 2R or 7R, read-out: Mean plasma concentration) was 1410 ng/mL. The concentration at 4 h ([2]; male, Sprague Dawley, rat, plasma, 10 mg/kg, rat plasma, 4 h after 10 mg/kg po of 2R or 7R, read-out: Mean plasma concentration) was 690 ng/mL, the Cmax ([2]; male, Sprague Dawley, rat, plasma, po, 10 mg/kg, rat plasma after 10 mg/kg po of 2R or 7R, parent or metabolite 1R as labelled) was 2110 ng/mL and the AUC(0-t) ([2]; male, Sprague Dawley, rat, plasma, po, 10 mg/kg, rat plasma after 10 mg/kg po of 2R or 7R, parent or metabolite 1R as labelled, read-out: AUC0-last (plasma) (converted)) was 8630 ng·h/mL. The half-life ([2]; male, Sprague Dawley, rat, plasma, po, 10 mg/kg, rat plasma after 10 mg/kg po of 2R or 7R, parent or metabolite 1R as labelled, read-out: t1/2 (plasma)) was 182 min, the “AUC0-last (brain)” value [2, 16] was 820350 ng·min/g and the “Cmax (brain)” value [2, 16] was 3502 ng/g. The “AUC0-last (brain)” value [2, 17] was 912802 ng·min/g, the “Cmax (brain)” value [2, 17] was 2335 ng/g and the “t1/2 (brain)” value [2, 17] was 185 min. For the same compound, the Mean brain concentration ([2]; rat brain, 0.083 h after 10 mg/kg po of 2R or 7R, listed as 1R as metabolite of 7R) was 59 ng/g, the Mean brain concentration ([2]; rat brain, 0.25 h after 10 mg/kg po of 2R or 7R, listed as 1R as metabolite of 7R) was 1233 ng/g and the Mean brain concentration ([2]; rat brain, 0.5 h after 10 mg/kg po of 2R or 7R, listed as 1R as metabolite of 7R) was 1623 ng/g. The Mean brain concentration ([2]; rat brain, 1 h after 10 mg/kg po of 2R or 7R, listed as 1R as metabolite of 7R) was 2075 ng/g, the Mean brain concentration ([2]; rat brain, 2 h after 10 mg/kg po of 2R or 7R, listed as 1R as metabolite of 7R) was 2335 ng/g and the Mean brain concentration ([2]; rat brain, 4 h after 10 mg/kg po of 2R or 7R, listed as 1R as metabolite of 7R) was 1176 ng/g. The “AUC0-last (plasma)” value [2, 18] was 503548 ng·min/mL, the “Cmax (plasma)” value [2, 18] was 1564 ng/mL and the Mean plasma concentration ([2]; rat plasma, 0.083 h after 10 mg/kg po of 2R or 7R, listed as 1R as metabolite of 7R) was 16 ng/mL. The Mean plasma concentration ([2]; rat plasma, 0.25 h after 10 mg/kg po of 2R or 7R, listed as 1R as metabolite of 7R) was 525 ng/mL, the Mean plasma concentration ([2]; rat plasma, 0.5 h after 10 mg/kg po of 2R or 7R, listed as 1R as metabolite of 7R) was 960 ng/mL and the Mean plasma concentration ([2]; rat plasma, 1 h after 10 mg/kg po of 2R or 7R, listed as 1R as metabolite of 7R) was 1360 ng/mL. It also gave a Mean plasma concentration ([2]; rat plasma, 2 h after 10 mg/kg po of 2R or 7R, listed as 1R as metabolite of 7R) of 1564 ng/mL and a Mean plasma concentration ([2]; rat plasma, 4 h after 10 mg/kg po of 2R or 7R, listed as 1R as metabolite of 7R) of 705 ng/mL.
For CN[C@]1(c2ccc(F)cc2)CCCCC1=O [Compound 2S, (S)-2-(4-fluorophenyl)-2-(methylamino)cyclohexan-1-one], the half-life [1, 3] was 21.6 min, the Cmax ([1]; mouse brain, 1 mg/kg po) was 80.4 ng/g and the half-life [1, 19] was 42 min. It also gave a half-life [1, 4] of 54.6 min, an AUC(0-inf) [1, 5] of 119 ng·h/mL and a Cmax ([1]; mouse plasma, 1 mg/kg po) of 51.7 ng/mL. For the same compound, the half-life [1, 6] was 50.4 min, the AUC(0-inf) [1, 7] was 46.6 ng·h/mL and the “AUC0-inf (iv)” value ([1]; mouse brain, 1 mg/kg iv) was 21,532 ng*min/g. The “AUC0-inf (po)” value ([1]; mouse brain, 1 mg/kg po) was 4,264 ng*min/g, the F [1, 8] was 20% and the F [1, 9] was 39%. For the same compound, the concentration at 0.083 h [2, 10] was 43 ng/g, the concentration at 0.25 h [2, 11] was 1900 ng/g and the concentration at 0.5 h [2, 12] was 2600 ng/g. For the same compound, the concentration at 1 h [2, 13] was 1510 ng/g, the concentration at 2 h [2, 14] was 521 ng/g and the concentration at 4 h [2, 15] was 155 ng/g.
In the case of N[C@]1(c2cccc(F)c2)CCCCC1=O [Compound 3S], the half-life [1, 3] is reported as 26.4 min, the Cmax ([1]; mouse brain, 1 mg/kg po) is reported as 112 ng/g and the half-life [1, 19] is reported as 40.8 min. The half-life [1, 4] was 101 min, the AUC(0-inf) [1, 5] was 608 ng·h/mL and the Cmax ([1]; mouse plasma, 1 mg/kg po) was 640 ng/mL. The half-life [1, 6] was 29.4 min, the AUC(0-inf) [1, 7] was 542 ng·h/mL and the “AUC0-inf (iv)” value ([1]; mouse brain, 1 mg/kg iv) was 18,797 ng*min/g. For the same compound, the “AUC0-inf (po)” value ([1]; mouse brain, 1 mg/kg po) was 7,418 ng*min/g, the F [1, 8] was 39% and the F [1, 9] was 89%.
